Activity calls are given as the source filed them. The rule behind the calls is not given here.
Assays:
[1] = molecular target: CDK9/Cyclin K (Homo sapiens) (UniProt P50750+O75909); assay: Inhibition of human CDK9/CyclinK at 1 uM using KTFCGTPEYLAPEVRREPRILSEEEQEMFRDFDYIADWC as substrate in presence of [gamma33P]-ATP by HotSpot assay relative to control; assay type: protein-complex assay
[2] = molecular target: Insulin-like growth factor 1 receptor (Homo sapiens, UniProt P08069); assay: Inhibition of human IGF1R using KKKSPGEYVNIEFG as substrate in presence of [gamma33P]-ATP by HotSpot assay
Sequence of Insulin-like growth factor 1 receptor (P08069 31-736 limits assumed): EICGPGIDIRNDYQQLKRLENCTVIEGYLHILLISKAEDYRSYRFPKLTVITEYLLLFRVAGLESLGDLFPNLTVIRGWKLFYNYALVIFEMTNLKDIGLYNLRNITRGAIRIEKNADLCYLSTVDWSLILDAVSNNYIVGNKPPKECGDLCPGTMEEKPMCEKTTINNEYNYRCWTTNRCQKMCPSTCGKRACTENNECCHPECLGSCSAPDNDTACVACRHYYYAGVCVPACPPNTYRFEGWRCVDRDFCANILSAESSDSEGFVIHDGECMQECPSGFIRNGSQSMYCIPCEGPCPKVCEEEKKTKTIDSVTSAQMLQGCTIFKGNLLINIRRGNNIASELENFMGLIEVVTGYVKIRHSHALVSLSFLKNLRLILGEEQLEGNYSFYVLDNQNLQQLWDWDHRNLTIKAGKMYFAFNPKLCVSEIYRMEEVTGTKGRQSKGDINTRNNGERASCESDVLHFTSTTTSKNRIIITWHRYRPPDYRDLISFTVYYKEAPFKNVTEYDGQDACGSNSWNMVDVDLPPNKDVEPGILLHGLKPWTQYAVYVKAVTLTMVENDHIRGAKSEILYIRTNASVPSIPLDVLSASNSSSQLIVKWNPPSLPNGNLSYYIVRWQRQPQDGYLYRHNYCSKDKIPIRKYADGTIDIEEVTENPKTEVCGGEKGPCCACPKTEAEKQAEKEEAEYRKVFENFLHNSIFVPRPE
Sequence of Insulin-like growth factor 1 receptor (P08069 741-1367 limits assumed): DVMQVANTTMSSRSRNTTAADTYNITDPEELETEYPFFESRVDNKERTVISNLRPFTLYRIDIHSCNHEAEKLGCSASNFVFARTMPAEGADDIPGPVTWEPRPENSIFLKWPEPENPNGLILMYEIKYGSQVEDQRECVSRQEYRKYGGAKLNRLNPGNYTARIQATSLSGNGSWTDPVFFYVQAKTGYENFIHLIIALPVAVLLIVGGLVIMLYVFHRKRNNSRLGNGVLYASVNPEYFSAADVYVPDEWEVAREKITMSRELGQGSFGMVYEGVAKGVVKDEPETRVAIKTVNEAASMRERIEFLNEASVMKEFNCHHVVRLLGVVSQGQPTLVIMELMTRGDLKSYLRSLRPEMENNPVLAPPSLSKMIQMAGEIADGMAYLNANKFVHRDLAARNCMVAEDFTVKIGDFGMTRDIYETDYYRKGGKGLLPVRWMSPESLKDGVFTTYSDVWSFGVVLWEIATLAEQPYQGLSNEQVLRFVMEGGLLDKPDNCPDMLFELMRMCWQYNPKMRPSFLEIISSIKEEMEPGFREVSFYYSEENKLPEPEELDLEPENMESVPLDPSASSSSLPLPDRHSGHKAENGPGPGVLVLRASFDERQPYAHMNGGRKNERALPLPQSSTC

[3] = molecular target: Ribosomal protein S6 kinase alpha-3 (Homo sapiens, UniProt P51812); assay: Inhibition of human RPS6kA3 using KKLNRTLSVA as substrate in presence of [gamma33P]-ATP by HotSpot assay
[4] = molecular target: Tyrosine-protein kinase Blk (Homo sapiens, UniProt P51451); assay: Inhibition of human BLK using poly (Glu, Tyr)4:1 as substrate in presence of [gamma33P]-ATP by HotSpot assay
[5] = molecular target: Tyrosine-protein kinase ABL1 (Homo sapiens, UniProt P00519, Q252H); assay: Inhibition of human ABL1 Q252H mutant using EAIYAAPFAKKK as substrate in presence of [gamma33P]-ATP by HotSpot assay
[6] = molecular target: Mitogen-activated protein kinase kinase kinase 9 (Homo sapiens, UniProt P80192); assay: Inhibition of human MAP3K9 using casein as substrate in presence of [gamma33P]-ATP by HotSpot assay
[7] = molecular target: Tyrosine-protein kinase BTK (Homo sapiens, UniProt Q06187); assay: Inhibition of human BTK using poly (Glu, Tyr)4:1 as substrate in presence of [gamma33P]-ATP by HotSpot assay
Ephrin type-A receptor 7 = Ephrin type-A receptor 7 (Homo sapiens, UniProt Q15375); assay: Inhibition of human EPHA7 using poly (Glu, Tyr)4:1 as substrate in presence of [gamma33P]-ATP by HotSpot assay
Sequence of Ephrin type-A receptor 7 (Q15375 whole entry): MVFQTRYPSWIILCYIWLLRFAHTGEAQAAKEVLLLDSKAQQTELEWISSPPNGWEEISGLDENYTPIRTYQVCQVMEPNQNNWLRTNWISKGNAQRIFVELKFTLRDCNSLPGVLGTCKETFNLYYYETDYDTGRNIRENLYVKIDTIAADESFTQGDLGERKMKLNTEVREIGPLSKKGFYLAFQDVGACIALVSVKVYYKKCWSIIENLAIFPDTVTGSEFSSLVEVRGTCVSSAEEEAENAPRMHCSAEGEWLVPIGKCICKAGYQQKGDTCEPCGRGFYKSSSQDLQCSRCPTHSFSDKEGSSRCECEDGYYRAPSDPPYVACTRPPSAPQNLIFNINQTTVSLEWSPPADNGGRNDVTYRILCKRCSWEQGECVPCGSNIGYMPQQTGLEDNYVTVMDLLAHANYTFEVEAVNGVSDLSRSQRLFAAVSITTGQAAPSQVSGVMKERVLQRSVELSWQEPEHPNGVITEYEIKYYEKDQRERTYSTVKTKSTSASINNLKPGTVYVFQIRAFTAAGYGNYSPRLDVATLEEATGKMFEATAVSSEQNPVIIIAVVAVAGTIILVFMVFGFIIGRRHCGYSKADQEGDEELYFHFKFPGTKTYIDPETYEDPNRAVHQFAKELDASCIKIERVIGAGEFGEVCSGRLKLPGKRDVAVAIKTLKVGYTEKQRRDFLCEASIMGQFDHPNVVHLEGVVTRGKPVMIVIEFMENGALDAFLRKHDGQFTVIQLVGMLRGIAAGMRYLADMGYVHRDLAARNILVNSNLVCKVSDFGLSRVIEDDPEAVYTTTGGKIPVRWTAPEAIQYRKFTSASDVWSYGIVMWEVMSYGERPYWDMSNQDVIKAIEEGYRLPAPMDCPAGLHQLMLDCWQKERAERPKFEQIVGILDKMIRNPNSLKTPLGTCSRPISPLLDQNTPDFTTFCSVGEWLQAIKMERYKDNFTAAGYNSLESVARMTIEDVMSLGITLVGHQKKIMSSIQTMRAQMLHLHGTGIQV

Homo sapiens = species on record: Homo sapiens; assay: Inhibition of human BRAF V600E at 1 uM using MEK1 as substrate in presence of [gamma33P]-ATP by HotSpot assay relative to control
[8] = molecular target: CDK6/cyclin D3 (Homo sapiens) (UniProt P30281+Q00534); assay: Inhibition of human CDK6/CyclinD3 at 1 uM using RB protein as substrate in presence of [gamma33P]-ATP by HotSpot assay relative to control; assay type: protein-complex assay
[9] = molecular target: Dual specificity tyrosine-phosphorylation-regulated kinase 2 (Homo sapiens) (UniProt Q92630); assay: Inhibition of human DYRK2 at 1 uM using RRRFRPASPLRGPPK as substrate in presence of [gamma33P]-ATP by HotSpot assay relative to control
Sequence of Dual specificity tyrosine-phosphorylation-regulated kinase 2 (Homo sapiens) (Q92630 whole entry): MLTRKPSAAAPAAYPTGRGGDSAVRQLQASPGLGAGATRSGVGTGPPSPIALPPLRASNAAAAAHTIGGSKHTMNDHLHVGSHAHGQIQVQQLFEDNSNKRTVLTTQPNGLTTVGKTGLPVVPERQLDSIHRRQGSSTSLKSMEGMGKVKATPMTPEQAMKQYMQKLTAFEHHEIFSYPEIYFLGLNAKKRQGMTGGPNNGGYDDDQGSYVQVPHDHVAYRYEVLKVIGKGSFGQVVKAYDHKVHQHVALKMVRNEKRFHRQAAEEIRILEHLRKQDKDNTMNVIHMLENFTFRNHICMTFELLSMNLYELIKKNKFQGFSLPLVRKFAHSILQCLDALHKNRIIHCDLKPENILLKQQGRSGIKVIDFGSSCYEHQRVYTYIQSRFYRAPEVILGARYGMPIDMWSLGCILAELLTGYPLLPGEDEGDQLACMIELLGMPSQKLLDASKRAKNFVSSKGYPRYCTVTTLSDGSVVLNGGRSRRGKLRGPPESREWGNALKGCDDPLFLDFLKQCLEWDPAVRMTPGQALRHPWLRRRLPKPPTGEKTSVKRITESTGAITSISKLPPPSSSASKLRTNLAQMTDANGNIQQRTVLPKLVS

[10] = molecular target: Ephrin type-B receptor 4 (Homo sapiens) (UniProt P54760); assay: Inhibition of human EPHB4 at 1 uM using poly (Glu, Tyr)4:1 as substrate in presence of [gamma33P]-ATP by HotSpot assay relative to control
[11] = molecular target: LIM domain kinase 1 (Homo sapiens) (UniProt P53667); assay: Inhibition of human LIMK1 at 1 uM using cofilin as substrate in presence of [gamma33P]-ATP by HotSpot assay relative to control
[12] = molecular target: Megakaryocyte-associated tyrosine-protein kinase (Homo sapiens) (UniProt P42679); assay: Inhibition of human MATK at 1 uM using poly (Glu, Tyr)4:1 as substrate in presence of [gamma33P]-ATP by HotSpot assay relative to control
[13] = molecular target: Serine/threonine-protein kinase Nek3 (Homo sapiens) (UniProt P51956); assay: Inhibition of human NEK3 at 1 uM using MBP as substrate in presence of [gamma33P]-ATP by HotSpot assay relative to control
[14] = molecular target: Serine/threonine-protein kinase PAK 2 (Homo sapiens) (UniProt Q13177); assay: Inhibition of human PAK2 at 1 uM using RRRLSFAEPG as substrate in presence of [gamma33P]-ATP by HotSpot assay relative to control
Sequence of Serine/threonine-protein kinase PAK 2 (Homo sapiens) (Q13177 whole entry): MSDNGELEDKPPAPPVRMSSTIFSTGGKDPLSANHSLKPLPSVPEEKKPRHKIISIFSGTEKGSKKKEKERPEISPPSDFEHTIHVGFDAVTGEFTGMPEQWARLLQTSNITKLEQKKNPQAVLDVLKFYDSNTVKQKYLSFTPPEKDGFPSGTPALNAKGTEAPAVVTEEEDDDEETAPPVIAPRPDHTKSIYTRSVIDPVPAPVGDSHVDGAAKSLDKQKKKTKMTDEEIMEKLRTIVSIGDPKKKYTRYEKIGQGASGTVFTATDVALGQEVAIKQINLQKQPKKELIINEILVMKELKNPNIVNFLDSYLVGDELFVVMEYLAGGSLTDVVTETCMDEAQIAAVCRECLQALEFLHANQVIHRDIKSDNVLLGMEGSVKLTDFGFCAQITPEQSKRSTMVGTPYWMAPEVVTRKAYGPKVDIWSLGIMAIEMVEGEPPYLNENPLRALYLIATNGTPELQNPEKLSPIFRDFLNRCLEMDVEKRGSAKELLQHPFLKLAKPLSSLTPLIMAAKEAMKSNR

[15] = molecular target: Lymphokine-activated killer T-cell-originated protein kinase (Homo sapiens) (UniProt Q96KB5); assay: Inhibition of human PBK at 1 uM using MBP as substrate in presence of [gamma33P]-ATP by HotSpot assay relative to control
[16] = molecular target: cGMP-dependent protein kinase 2 (Homo sapiens) (UniProt Q13237); assay: Inhibition of human PRKG2 at 1 uM using LRRASLG as substrate in presence of [gamma33P]-ATP by HotSpot assay relative to control
Sequence of cGMP-dependent protein kinase 2 (Homo sapiens) (Q13237 whole entry): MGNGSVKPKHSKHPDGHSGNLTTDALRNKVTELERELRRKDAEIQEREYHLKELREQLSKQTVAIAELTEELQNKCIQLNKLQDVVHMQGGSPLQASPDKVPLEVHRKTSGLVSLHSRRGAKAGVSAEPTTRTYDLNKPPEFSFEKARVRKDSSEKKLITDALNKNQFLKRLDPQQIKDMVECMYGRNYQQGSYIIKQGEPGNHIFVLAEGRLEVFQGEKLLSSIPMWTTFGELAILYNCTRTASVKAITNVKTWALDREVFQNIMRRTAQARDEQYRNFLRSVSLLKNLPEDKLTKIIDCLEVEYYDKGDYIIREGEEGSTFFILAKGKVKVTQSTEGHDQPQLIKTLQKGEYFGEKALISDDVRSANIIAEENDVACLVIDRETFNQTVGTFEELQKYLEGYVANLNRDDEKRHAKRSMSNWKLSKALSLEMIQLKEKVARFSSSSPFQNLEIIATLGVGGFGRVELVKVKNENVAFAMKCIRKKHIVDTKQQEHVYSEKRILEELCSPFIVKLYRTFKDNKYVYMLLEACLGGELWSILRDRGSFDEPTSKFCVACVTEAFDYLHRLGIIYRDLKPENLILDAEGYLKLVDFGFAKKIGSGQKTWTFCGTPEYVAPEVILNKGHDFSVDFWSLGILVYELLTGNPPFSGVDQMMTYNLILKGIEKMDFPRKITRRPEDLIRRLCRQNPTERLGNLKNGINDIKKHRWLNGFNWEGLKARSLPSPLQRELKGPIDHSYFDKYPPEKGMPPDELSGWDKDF

[17] = molecular target: Ribosomal protein S6 kinase alpha-5 (Homo sapiens) (UniProt O75582); assay: Inhibition of human RPS6KA5 at 1 uM using GRPRTSSFAEG as substrate in presence of [gamma33P]-ATP by HotSpot assay relative to control
[18] = molecular target: Serine/threonine-protein kinase 17A (Homo sapiens) (UniProt Q9UEE5); assay: Inhibition of human STK17A at 1 uM using KKLNRTLSFAEPG as substrate in presence of [gamma33P]-ATP by HotSpot assay relative to control
[19] = molecular target: Dual specificity protein kinase TTK (Homo sapiens) (UniProt P33981); assay: Inhibition of human TTK at 1 uM using MBP as substrate in presence of [gamma33P]-ATP by HotSpot assay relative to control
[20] = molecular target: Tyrosine-protein kinase TXK (Homo sapiens) (UniProt P42681); assay: Inhibition of human TXK at 1 uM using EAIYAAPFAKKK as substrate in presence of [gamma33P]-ATP by HotSpot assay relative to control
Sequence of Tyrosine-protein kinase TXK (Homo sapiens) (P42681 whole entry): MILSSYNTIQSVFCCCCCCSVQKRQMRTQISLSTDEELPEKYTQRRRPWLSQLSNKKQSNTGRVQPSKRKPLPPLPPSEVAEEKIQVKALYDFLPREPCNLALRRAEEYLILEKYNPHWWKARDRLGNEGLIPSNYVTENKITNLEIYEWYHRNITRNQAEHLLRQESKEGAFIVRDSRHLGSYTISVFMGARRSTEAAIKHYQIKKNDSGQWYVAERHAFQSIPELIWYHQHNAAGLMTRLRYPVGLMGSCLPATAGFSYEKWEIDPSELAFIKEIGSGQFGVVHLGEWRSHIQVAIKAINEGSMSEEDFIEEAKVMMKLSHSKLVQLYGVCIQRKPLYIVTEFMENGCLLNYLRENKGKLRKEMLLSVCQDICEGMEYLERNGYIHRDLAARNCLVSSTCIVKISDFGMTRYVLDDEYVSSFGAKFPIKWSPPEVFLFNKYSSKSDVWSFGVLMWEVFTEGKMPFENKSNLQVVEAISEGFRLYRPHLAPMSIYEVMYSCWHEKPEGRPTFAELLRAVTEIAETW

KARPAS-299 = assay: Antitumor activity against ALK positive human KARPAS-299 cells xenografted in SCID beige mouse assessed as tumor regression at 50 mg/kg, po administered once daily for 14 days and measured after 13 days relative to control; assay type: functional; conditions: time 27 day
Mus musculus = assay: In vivo inhibition of ALK signaling in SCID Beige mouse xenografted with ALK positive human KARPAS-299 cells assessed as reduction in phosphorylated ERK1/2 level at 10 to 50 mg/kg, po administered as single dose and measured at 6 to 24 hrs by immunoblot analysis; assay type: functional, organism-based; conditions: dose 10-50 mg/kg, time 6-24 hrs
BaF3 = conditions: dose 50 mg/kg; route po; time 8 day
[21] = tested on: EML4-ALK (Homo sapiens), Q9UM73+Q9HC35 [L1152P]; conditions: BaF3, time 3-5 weeks
[22] = tested on: EML4-ALK (Homo sapiens), Q9UM73+Q9HC35 [I1171N]; conditions: BaF3, time 3-5 weeks
[23] = tested on: EML4-ALK (Homo sapiens), Q9UM73+Q9HC35 [G1269A]; conditions: BaF3, dose 500.0 nmol/L, time 3-5 weeks

COc1cc(N2CCC(N3CCN(C)CC3)CC2)ccc1Nc1ncc(Cl)c(Nc2ccccc2P(C)(C)=O)n1 [BRIGATINIB]
inhibition [1]: < 90% | IC50 [2]: 73 nM | IC50 [3]: 26 nM | IC50 [4]: 136 nM | IC50 [5]: 171 nM | IC50 [6]: 218 nM | IC50 [7]: 674 nM | IC50 (Ephrin type-A receptor 7): > 1000 nM | inhibition (Homo sapiens): < 90% | inhibition [8]: < 90% | inhibition [9]: < 90% | inhibition [10]: < 90% | inhibition [11]: < 90% | inhibition [12]: < 90% | inhibition [13]: < 90% | inhibition [14]: < 90% | inhibition [15]: < 90% | inhibition [16]: < 90% | inhibition [17]: < 90% | inhibition [18]: < 90% | inhibition [19]: < 90% | inhibition [20]: < 90% | Activity (KARPAS-299): ~100% | Activity (Mus musculus): Active | TGI (BaF3): 88% | IC90 [21]: 94 nM | IC90 [22]: 278 nM | inhibition [23]: Active
